Assays:
[1] = tested on: primary cortical cultures (PCCs); assay: Lactate dehydrogenase (LDH) release rate analysis, H2O2-treated PCCs; type: cell-based, C57BL/6 mice; conditions: for concentration at which the LDH release rate of the PCCs is reduced most: tested 0.1, 1, 10 and 100 μM, FIG. 1G; for LDH release rate of the PCCs treated with H2O2: compound 100 μM, 10^-4 mol/L H2O2, 24 hours, FIG. 1F
Method: H2O2 can cause an oxidative damage to cells and a destruction of the cell membrane, and consequently the LDH is released into medium. For that reason, the lower rate of the LDH released into the culture medium is represented the fewer damaged cells and better cell protection effect of sample.
Test cells are primary cortical cultures (PCCs) in this example. The PCCs are prepared from cerebral cortexes of gestation day 17 embryos from C57BL/6 mice as described previously (Cell Death Differ 2008; 15: 143-151). The PCCs are maintained under serum-free conditions in neurobasal medium (Invitrogen), supplemented with B-27 supplement (2%; invitrogen), glutamine (0.5 mM; Sigma Aldrich), glutamate ([…]; Sigma Aldrich), penicillin (100 U/ml) and streptomycin ([…]; Invitrogen). At 4 days in vitro, half of the medium is removed and replaced with fresh medium without glutamate. The cultures are maintained in a humidified incubator at 37° C. with 5% CO2. At 7 days in vitro, the PCCs are used for experimentation.
The PCCs are seeded in a 24-well plate and are allowed to stand for 20 minutes. […] The PCCs are maintained at 37° C. in a humidified atmosphere of 5% CO2 for 24 hours. After incubation, the culture medium is collected and washed twice with phosphate buffered saline (PBS), and then are analyzed the LDH activity in the culture medium by using LDH Cytotoxicity Detection Kit (TaKaRa Bio Laboratories, Japan) to calculate the percentage cytotoxicity, which is represented the situation of cells damage, of the PCCs. The lower percentage cytotoxicity presents the lower LDH activity detected and less severe of cells damages, which indicates the better cell protection effect of the sample. The LDH activity is measured by a colorimetry. After a reaction between enzyme and particular substrate, an absorbance of the reaction solution and the LDH activity is linearly correlated. The LDH activity (U/10^−3 L) is calculated by a reduced optical density slope at a wavelength of 340 nm within three minutes. A lactate dehydrogenase activity unit is defined as a catalytic consumption of […] NADH per minute.

ischemic rats = assay: Volume of the infarction after cerebral ischemia, magnetic resonance imaging (MRI); type: in vivo, Sprague-Dawley (SD) rats; conditions: 30 mg/kg, 7 days after the injection, FIGS. 18A, 18B
Source text: The ischemic rats are induced by an ischemia-reperfusion model to simulate transient focal cerebral ischemia in rats. Test animals are male Sprague-Dawley (SD) rats weighing 250-300 g. The rats are anesthetized with chloral hydrate (0.4 g/kg IP) and subjected to cerebral ischemia. The ischemia-reperfusion model is induced by ligations of bilateral common carotid arteries (CCAs) and a right middle cerebral artery (MCA). The bilateral CCAs are clamped with non-traumatic arterial clips, and the right MCA is ligated with an 10-0 nylon suture. After 90 minutes ischemia, the suture on the MCA and the arterial clips on CCAs are removed to allow reperfusion. Core body temperature is monitored with a thermistor probe (Hewlett-Packard Model 21090A probe, Hewlett-Packard Company, Andover, Mass.), and maintained at 37° C. with a heating pad during anesthesia. After recovery from anesthesia, rat body temperature is maintained at 37° C. with a heat lamp.
Further, the ischemic rats are assigned into 5 groups, 4 test groups and 1 control group. The ischemic rats of the test groups are injected with 1 mg/kg of the Compound 1, 30 mg/kg of the genipin, 1 mg/kg of the Compound 1 and 100 mg/kg of 2-ME2, and 1 mg/kg of the Compound 1 and the LV-Bmi-1-sh, respectively. The ischemic rats of the control group are injected with the vehicle. At 7 days after the injection, the ischemic rats of the different groups are anesthetized, and the volume of the infarction thereof is assessed by a magnetic resonance imaging (MRI).

| Compound | concentration at which the LDH release rate of the PCCs is reduced most [1] | LDH release rate of the PCCs treated with H2O2 [1] | area of the largest infarction (MRI) (ischemic rats) | volume of the infarction (MRI) (ischemic rats) |
| --- | --- | --- | --- | --- |
| COC(=O)C1=CO[C@@H](OC(=O)[C@@H](N)Cc2ccccc2)[C@@H]2C(CO)=CC[C@H]12 [Compound 16] | 100 µM | – | – | – |
| COC(=O)C1=CO[C@@H](OC(=O)[C@@H](N)Cc2ccccc2)[C@@H]2C(COC(=O)[C@@H](N)Cc3ccccc3)=CC[C@H]12 [Compound 15] | 100 µM | lower LDH release rate | – | – |
| COC(=O)C1=CO[C@@H](O)[C@@H]2C(CO)=CC[C@H]12 [genipin, reference compound] | – | – | reduced | reduced |
| COC(=O)C1=CO[C@@H](O)[C@@H]2C(COC(=O)[C@H](Cc3ccccc3)NC(=O)OC(C)(C)C)=CC[C@H]12 [Compound 3] | 100 µM | lower LDH release rate | – | – |
